# Test results from patent publication US8232278B2 (Gilead Sciences, Inc., priority 2005, dated 2012).
# Like-named read-outs stand apart in the source and are kept apart here.
# Key:
# [1] = test system: wild-type HIV-1 strain IIIB; test: HIV-1 assay (XTT, HIV-induced cytopathic effect in MT-2 cells); assay type: cell-based; conditions: for inhibition at 5 µM: read-out: MT2 HIV % inhib. @ 5 μM
# Method: This assay is based on the quantification of the HIV-induced cytopathic effect by a calorimetric detection of the viability of virus-infected cells in the presence or absence of tested inhibitors. The HIV-induced cell death was determined by using as a metabolic substrate 2,3-bis(2-methoxy-4-nitro-5-sulfophenyl)-2H-tetrazolium-5-carboxanilide (hereinafter referred as XTT) which was converted only by live cells into a product with specific absorption characteristics, as described by Weislow et al., J. Natl. Cancer Inst. (1989) 81:577.
# The assay protocol for the determination of EC50 includes the following steps: • 1. MT-2 cells were maintained in RPMI-1640 medium supplemented with 10% fetal bovine serum, glutamine and antibiotics. • 2. Cells were infected by the wild-type HIV-1 strain IIIB (ABI, Columbia, Md.) for 3 hours at 37° C. using a multiplicity of infection (MOI) of 0.01. • 3. Prepare a set of solutions containing various concentrations of the tested inhibitor by making 5-fold serial dilutions in 96-well plate (100 μl/well). Alternatively, test single drug concentration (100 μl/well). Distribute the infected cells into the 96-well plate containing the inhibitors (20,000 cells in 100 μl/well). Include the following control samples, untreated infected cells (100% cell death) and control drug-treated infected cells (full protection). • 4. Incubate the cells for 5 days at 37° C. • 5. Prepare XTT solution (6 mL per assay plate) at a concentration of 2 mg/mL in a phosphate-buffered saline at pH 7.4. Heat the solution in water-bath for 10 minutes at 56° C. Add 50 μl of N-methylphenazonium methasulfate (5 μg/mL) per 6 mL of XTT solution. • 6. Remove 100 μl media from each well on the assay plate. • 7. Add 100 μl of the XTT substrate solution per well and incubate at 37° C. for 45 to 60 minutes in a CO2 incubator. • 8. Add 20 μl of 2% Triton X-100 per well to inactivate the virus. • 9. Read the absorbance at 450 nm with subtracting off the background absorbance at 650 nm. • 10. Plot the percentage absorbance relative to untreated control and estimate the EC50 value as drug concentration resulting in a 50% protection of the infected cells. Alternatively, calculate the percentage of inhibition for a fixed concentration, relative to the full protection with the control drug.
# This assay has been performed on a set of compounds of the invention, and results are reported in table 8 below, also indicating the nature of substituents being present in positions 4 and 6 of the pyrido[3,2-d]pyrimidine derivatives of the invention (all being amino-substituted in position 2).
# HCV replicon = test: Anti-HCV assay / replicon assay (EC50, luciferase read-out); assay type: cell-based, hepatitis C virus (HCV); conditions: for CC50/EC50: CC50/EC50 ratio (selectivity index)
# Procedure, shortened: (§1)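 Huh-7 cells carrying an HCV replicon, 6000 per well, were exposed to 3-fold serial compound dilutions (0.5% DMSO final where DMSO was used) for 3 days at 37 °C. EC50 was read by luciferase after cell lysis; CC50 was taken as 50% inhibition of cell growth.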
# [2] = CC50 assay in Huh-7 HCV replicon cells (CellTiter-Glo); assay type: cell-based, human; conditions: human, 50% cytostatic concentration
# Procedure, shortened: as §1
# Huh-7 HCV replicon cells = test: CC50 assay in Huh-7 HCV replicon cells (CellTiter-Glo); assay type: cell-based, human; conditions: 3 days, 50% cytostatic concentration
# Procedure, shortened: as §1
# [3] = Human immunodeficiency virus 1, MT2, 120 h, 5 μM, MT-2 cells infected with HIV-1 IIIB, 5 days, XTT
# [4] = Hepatitis C virus, 72 h, human hepatoma Huh-7 cell line harbouring a HCV replicon, 3 days, luciferase luminescence, read-out: EC50
compound,measurement,setting,value
"Nc1nc(OCc2ccccc2)c2nc(-c3ccc(F)cc3)ccc2n1 [Example 211, 2-amino-4-benzyloxy-6-(p-fluorophenyl)-pyrido[3,2-d]pyrimidine]",inhibition at 5 µM,[1]; [3],17%
same,CC50/EC50,HCV replicon,179
same,EC50,HCV replicon; [4],0.21 µM
same,CC50 at 3 days,[2],37.5 µM
"CC(=O)Nc1ccc(-c2ccc3nc(N)nc(N4CCN(C(C)=O)CC4)c3n2)cc1 [Example 340, 2-amino-4-(N-acetylpiperazino)-6-(p-acetamidophenyl)-pyrido(3,2-d)pyrimidine]",inhibition at 5 µM,[1]; [3],4%
"CCOCCOc1nc(N)nc2ccc(-c3ccccc3F)nc12 [Example 302, 2-amino-4-(2-ethoxyethoxy)-6-(2-fluorophenyl)-pyrido[3,2-d]pyrimidine]",melting point,,163 °C
"CCOc1nc(N)nc2ccc(-c3ccc(F)cc3)nc12 [Example 281, 2-amino-4-ethoxy-6-(p-fluorophenyl)pyrido[3,2-d]-pyrimidine]",inhibition at 5 µM,[1]; [3],17%
same,CC50/EC50,HCV replicon,856
same,EC50,HCV replicon; [4],0.059 µM
same,CC50,Huh-7 HCV replicon cells,50.1 µM
"COc1ccc(-c2ccc3nc(N)nc(N4CCN(C)CC4)c3n2)cc1OC [Example 36, 2-amino-4-(N-methyl-piperazino)-6-(3,4-dimethoxyphenyl)-pyrido[3,2-d]pyrimidine]",inhibition at 5 µM,[1]; [3],3%
"CC(=O)N1CCN(c2nc(N)nc3ccc(-c4ccc(F)cc4)nc23)CC1 [Example 320, 2-amino-4-(N-acetylpiperazino)-6-(4-fluorophenyl)-pyrido[3,2-d]pyrimidine]",inhibition at 5 µM,[1]; [3],12%
same,CC50/EC50,HCV replicon,87
same,EC50,HCV replicon; [4],0.23 µM
same,CC50 at 3 days,[2],19.9 µM
"CCOc1nc(N)nc2ccc(-c3ccc(NC(C)=O)cc3)nc12 [Example 353, 2-amino-4-ethoxy-6-(p-acetamidophenyl)pyrido(3,2-d)pyrimidine]",inhibition at 5 µM,[1]; [3],4%
same,CC50/EC50,HCV replicon,56
same,EC50,HCV replicon; [4],0.45 µM
same,CC50 at 3 days,[2],25.1 µM
"CC(C)Oc1nc(N)nc2ccc(-c3ccc(F)cc3)nc12 [Example 286, 2-amino-4-isopropoxy-6-(p-fluorophenyl)-pyrido[3,2-d]pyrimidine]",inhibition at 5 µM,[1]; [3],11%
same,CC50/EC50,HCV replicon,1113
same,EC50,HCV replicon; [4],0.045 µM
same,CC50,Huh-7 HCV replicon cells,50.1 µM
"COCCOc1nc(N)nc2ccc(-c3ccc(F)cc3)nc12 [Example 305, 2-amino-4-(2-methoxyethoxy)-6-(4-fluorophenyl)-pyrido[3,2-d]pyrimidine]",CC50/EC50,HCV replicon,2863
same,EC50,HCV replicon; [4],0.018 µM
same,melting point,,204 °C
same,CC50,Huh-7 HCV replicon cells,50.1 µM
"Nc1nc(OCc2ccccc2)c2nc(-c3cccc(F)c3)ccc2n1 [Example 210, 2-amino-4-benzyloxy-6-(m-fluorophenyl)-pyrido[3,2-d]pyrimidine]",inhibition at 5 µM,"[1]; Human immunodeficiency virus 1, IIIB, MT2, 120 h",5%
same,CC50/EC50,HCV replicon,85
same,EC50,"HCV replicon; Hepatitis C virus, Huh-7, 72 h",0.22 µM
same,CC50 at 3 days,[2],18.8 µM
"Nc1nc(N2CCOCC2)c2nc(-c3ccncc3)ccc2n1 [Example 226, 2-amino-4-morpholino-6-(4-pyridinyl)-pyrido[3,2-d]pyrimidine]",inhibition at 5 µM,[1]; [3],9%
"6-(3,4-difluoro-phenyl)-4-ethoxy-pyrido[3,2-d]pyrimidin-2-ylamine [Example 460]",MT2 HIV % inhib. @ 5 μM,"[1]; 5 μM, MT-2 cells infected with HIV-1 IIIB, 5 days, XTT",11%
same,CC50/EC50,HCV replicon,145
same,EC50,"HCV replicon; human hepatoma Huh-7 cell line harbouring a HCV replicon, 3 days, luciferase luminescence, read-out: EC50",0.113 µM
same,CC50,Huh-7 HCV replicon cells,16.3 µM
"COc1ccc(-c2ccc3nc(N)nc(N4CCCN(C(=O)Nc5cccc(C)c5)CC4)c3n2)cc1OC [Example 241, 2-amino-4-[(N-3-methylphenylcarbamoyl)-homopiperazin-1-yl]-6-(3,4-dimethoxyphenyl)-pyrido[3,2-d]pyrimidine]",CC50/EC50,HCV replicon,218
same,EC50,HCV replicon; [4],0.011 µM
same,CC50 at 3 days,[2],2.4 µM
"CCCCOc1nc(N)nc2ccc(-c3ccc(F)cc3)nc12 [Example 290, 2-amino-4-n-butoxy-6-(p-fluorophenyl)-pyrido[3,2-d]pyrimidine]",CC50/EC50,HCV replicon,63
same,EC50,HCV replicon; [4],0.34 µM
same,CC50 at 3 days,[2],21.3 µM
"CCOCCOc1nc(N)nc2ccc(-c3cccc(F)c3)nc12 [Example 303, 2-amino-4-(2-ethoxyethoxy)-6-(3-fluorophenyl)-pyrido[3,2-d]pyrimidine]",inhibition at 5 µM,[1]; [3],8%
same,CC50/EC50,HCV replicon,89
same,EC50,HCV replicon; [4],0.56 µM
same,melting point,,165 °C
same,CC50,Huh-7 HCV replicon cells,50.1 µM
"CCCOc1nc(N)nc2ccc(-c3ccc(F)cc3)nc12 [Example 283, 2-amino-4-n-propoxy-6-(p-fluorophenyl)-pyrido[3,2-d]pyrimidine]",CC50/EC50,HCV replicon,221
same,EC50,HCV replicon; [4],0.095 µM
same,CC50 at 3 days,[2],21 µM
"CCNc1nc(N)nc2ccc(-c3ccc(F)cc3)nc12 [Example 402, 2-amino-4-ethylamino-6-(4-fluorophenyl)pyrido[3,2-d]pyrimidine]",CC50/EC50,HCV replicon,80
same,EC50,HCV replicon; [4],0.376 µM
same,CC50 at 3 days,[2],30 µM
"CCOCCOc1nc(N)nc2ccc(-c3ccc(F)cc3)nc12 [Example 304, 2-amino-4-(2-ethoxyethoxy)-6-(4-fluorophenyl)-pyrido[3,2-d]pyrimidine]",inhibition at 5 µM,[1]; [3],9%
same,CC50/EC50,HCV replicon,852
same,EC50,HCV replicon; [4],0.044 µM
same,melting point,,192 °C
same,CC50 at 3 days,[2],37.5 µM
"Nc1nc(OCC(F)(F)F)c2nc(-c3ccc(F)cc3)ccc2n1 [Example 351, 2-amino-4-(trifluoroethoxy)-6-(4-fluorophenyl)-pyrido[3,2-d]pyrimidine]",CC50/EC50,HCV replicon,132
same,EC50,HCV replicon; [4],0.19 µM
same,CC50 at 3 days,[2],25.1 µM
"COc1ccc(-c2ccc3nc(N)nc(NCCC(=O)N4CCN(C(C)=O)CC4)c3n2)cc1OC [Example 262, 2-amino-4-[3-(4-acetylpiperazin-1-yl)-propan-3-one-1-yl-amino]-6-(3,4-dimethoxyphenyl)-pyrido[3,2-d]pyrimidine]",CC50/EC50,HCV replicon,261
same,EC50,HCV replicon; [4],0.096 µM
same,CC50 at 3 days,[2],25.1 µM
"COc1ccc(-c2ccc3nc(N)nc(NC4CCCN(C(=O)Nc5cccc(C)c5)C4)c3n2)cc1OC (stereo not shown) [Example 254, 2-amino-4-[(3-methylphenylcarbamoylpiperidin-3-yl)amino)-6-(3,4-dimethoxyphenyl]-pyrido[3,2-d]pyrimidine]",CC50/EC50,HCV replicon,147
same,EC50,HCV replicon; [4],0.05 µM
same,CC50 at 3 days,[2],7.3 µM
"COCCOc1nc(N)nc2ccc(-c3ccc(OC)c(OC)c3)nc12 [Example 471, 6-(3,4-dimethoxy-phenyl)-4-(2-methoxy-ethoxy)-pyrido[3,2-d]pyrimidin-2-ylamine]",CC50/EC50,HCV replicon,66
same,EC50,"HCV replicon; Hepatitis C virus, Huh-7, 72 h",0.38 µM
same,CC50 at 3 days,[2],25.1 µM
"Nc1nc(N2CCN(C(=O)COc3cccc(Cl)c3)CC2)c2nc(-c3ccc(F)cc3)ccc2n1 [Example 371, 2-amino-4-[4-(3-chlorophenoxy-acetyl)piperazin-1-yl]-6-(4-fluorophenyl)-pyrido[3,2-d]pyrimidine]",CC50/EC50,HCV replicon,837
same,EC50,HCV replicon; [4],0.03 µM
same,CC50 at 3 days,[2],25.1 µM
"COc1ccc(-c2ccc3nc(N)nc(N4CCN(CC(=O)NCCc5ccccc5)CC4)c3n2)cc1OC [Example 260, 2-amino-4-[4-(N-2-phenylethylacetamid-2-yl)piperazin-1-yl]-6-(3,4-dimethoxyphenyl)-pyrido[3,2-d]pyrimidine]",CC50/EC50,HCV replicon,73
same,EC50,HCV replicon; [4],0.036 µM
same,CC50 at 3 days,[2],2.6 µM
